In brackets after ≈: the same amount, converted by molar mass. Where two headings read alike, the source gives them in different places. Marks after values point to notes of the source that are not given here. Peptide text beside a SMILES is read from it.
Key:
[1] = test system: 5 microorganisms tested (S. epidermidis, S. aureus, E. coli, P. aeruginosa, C. albicans); assay: Mean MIC over the panel and selectivity index (Example 1); assay type: cell-based
Protocol: Red blood cells suspension incubated with PBS was used as negative control.

[2] = Acute in vivo toxicity, intravenous tail vein injection; settings: mouse, mice
Protocol: For the β-sheet forming peptides to qualify as suitable therapeutic candidates, their antimicrobial activities should be considered in the light of their selectivity for microbial cell membranes so as to minimize toxicities towards mammalian cells. […] The selectivity indices (SIs) of the peptides were further evaluated as a comparison of the safety and efficacies of the different peptide sequences (Table 2). SIs of the various peptides were calculated as the ratio of the HC10 value (defined as the lowest peptide concentration that induces 10% or more haemolysis) to the GM (geometric mean MICs of the 5 microbial strains tested). […] The acute in vivo toxicity testing was performed via intravenous tail vein injection of solutions containing representative peptides of n=2 [(IRIK)2-NH2 (SEQ ID NO: 17)] and n=3 [(IRVK)3-NH2 (SEQ ID NO: 22)] repeat units in mice.

E. coli and S. aureus = assay: FE-SEM imaging of treated bacteria (Example 1); assay type: cell-based, Escherichia coli, Staphylococcus aureus; settings: 2 h treatment
Protocol: E. coli suspension at ˜3×10^8 CFU ml^−1 (100 μL) was incubated with an equal volume of broth containing 20% (by volume) of water and a lethal dose (250 mg L^−1) of a representative peptide in a 96 well-plate for 2 h. Eight replicates of each condition was pooled into a microfuge tube, pelleted down at 5000×g for 5 min, and rinsed twice with PBS. The samples were then fixed with 4% formaldehyde at room temperature for 15 min, followed by rinsing with DI water. Dehydration of the cells was performed using a series of graded ethanol solutions (35, 50, 75, 90, 95 and 100%). The samples were allowed to air-dry, mounted on carbon table, and sputter coated with platinum for imaging with a FE-SEM setup (JEOL JSM-7400F, Japan).

S. aureus biofilms [3] = assay type: cell-based, Staphylococcus aureus; settings: 24 h; for killing of S. aureus residing in biofilms: MIC, 4×MIC, 8×MIC
Protocol: The wells were then rinsed once with 100 μL of PBS to remove planktonic cells and loosely attached cells, and replenished with 100 μL of fresh broth. Biofilm formation was allowed to proceed up to 6-8 days with daily rinsing and media changes before use in experiments. […] Subsequently, the solutions were removed and 120 μL of activated XTT solution was added into each well. […] Relative cell viability was expressed as [(A490-[…])sample/(A490-[…])control]×100%.

S. aureus biofilms [4] = assay: Biofilm biomass, crystal violet staining; assay type: cell-based, Staphylococcus aureus; settings: MIC, 4×MIC, 8×MIC, 24 h
Protocol: The biomass of the biofilms was estimated by a crystal violet staining assay. Briefly, the formed biofilms were first treated with the peptides for 24 h as described above. After aspirating the culture medium, the biofilms were washed once with PBS, fixed with methanol for 15 min at room temperature and stained with 100 μL of 0.1% (weight by volume) crystal violet for 10 min. The excess crystal violet dye was removed by rinsing the wells with DI water for five times. The dye that is associated with the biofilm was extracted using 100 μL of 33% glacial acetic acid per well and quantified by measuring the absorbance at a wavelength of 570 nm using a microplate reader (TECAN, Switzerland). The relative amount of biomass remaining after peptide treatment was expressed as a percentage of the control treated with broth containing 10% (by volume) of water. Data represent mean±standard deviations of four replicates per concentration.

[5] = test system: LPS-stimulated NO production in NR8383 rat macrophage cell line; assay: Endotoxin neutralization assay (Griess nitrite); assay type: cell-based; settings: 125 mg L^−1 peptide, 100 ng mL^−1 LPS, 18 h
Protocol: Untreated cells and cells that were stimulated with LPS alone served as the […] controls, respectively. The amount of NO produced was estimated by quantifying the concentration of the stable NO metabolite nitrite in the isolated supernatant fractions using the Griess reagent (1% sulphanilamide, 0.1% N-1-napthylethylenediamine dihydrochloride, 5% phosphoric acid) according to the manufacturer's protocol. The absorbance was measured at 540 nm and nitrite concentrations were determined using a standard reference curve prepared from known concentrations of NaNO2 solutions.

rabbit red blood cells = assay type: cell-based; settings: red cells of rabbit, 1 h
P. aeruginosa [6] = assay: MBC against clinical isolates; assay type: cell-based; settings: clinical isolate
C. neoformans = assay: MBC against clinical isolates; assay type: cell-based; settings: clinical isolate
S. epidermidis [7] = settings: 18 h
S. aureus [8] = settings: 18 h
E. coli [9] = settings: 18 h
P. aeruginosa [10] = settings: 18 h
C. albicans [11] = settings: 42 h
S. epidermidis [12] = settings: 18 h; remark: listed apart in the source
S. aureus [13] = settings: 18 h; remark: listed apart in the source
E. coli [14] = settings: 18 h; remark: listed apart in the source
P. aeruginosa [15] = settings: 18 h; remark: listed apart in the source
C. albicans [16] = test system: C. albicans
[17] = test system: Methicillin-resistant S. aureus; settings: clinical isolate
[18] = test system: Vancomycin-resistant Enterococci; settings: clinical isolate
[19] = test system: clinically isolated Mycobacterium tuberculosis
[20] = test system: 5 microorganisms tested (S. epidermidis, S. aureus, E. coli, P. aeruginosa, C. albicans); assay: Mean MIC over the panel and selectivity index (Example 2)
trypsin and proteinase K = assay type: in vitro ADME
Protocol: One of the major factors limiting the clinical utility of AMPs lies in their instability to rapid degradation by proteases which are present abundantly in biological fluids and/or secreted by microorganisms. In order to evaluate the proteolytic stability of the designed β-sheet forming peptides, the D- and L-isoforms of the n=2 peptide sequence (IK8-all D or IK8-all L, respectively) were treated with the broad spectrum serine proteases, trypsin and proteinase K, for 6 h and evaluated their antimicrobial activities against S. aureus, E. coli and P. aeruginosa. […] The structural integrity of synthetic peptides following treatment with both proteases was also evaluated using MALDI-TOF mass spectroscopy. […] The cleavage sites of both enzymes for the IK8-all L peptide are illustrated in FIG. 19a with the mass spectra peaks assigned to the major fragments.

F. solani = assay type: cell-based; settings: 24 h
Protocol: The MICs of peptides were determined against the fungi C. albicans (American Type Culture Collection, ATCC) and F. solani (ATCC) by the broth microdilution method. […] F. solani, were cultured on sabouraud dextrose agar plates in incubator at 37° C. To collect conidia following incubation, conidia of F. solani species were harvested and standardized to 1×10^8 spores/ml before performing the experiments. Sabouraud dextrose broth (90 μL) was added to the wells of culture plates. […] The plates were incubated at 37° C. and examined macroscopically after 24 h for the growth of F. solani. Appropriate control wells without any treatment were included in the study. Peptide were considered to be active if the wells appeared clear without any visible growth of F. solani, and the results were expressed as MIC. The assay was performed in four replicates for each concentration.

C. albicans keratitis = assay: Contact lens-associated C. albicans keratitis mouse model
S. aureus [21] = assay type: cell-based, Staphylococcus aureus; settings: passage 20
[22] = topical eye drops, peptides 3000 mg/L, amphotericin B 1000 mg/L

## CC[C@H](C)[C@H](N)C(=O)N[C@@H](CCCNC(=N)N)C(=O)N[C@H](C(=O)N[C@@H](CCCCN)C(=O)N[C@H](C(=O)N[C@@H](CCCNC(=N)N)C(=O)N[C@H](C(=O)N[C@@H](CCCCN)C(=O)N[C@H](C(=O)N[C@@H](CCCNC(=N)N)C(=O)N[C@H](C(=O)N[C@@H](CCCCN)C(N)=O)C(C)C)[C@@H](C)CC)C(C)C)[C@@H](C)CC)C(C)C [(IRVK)3-NH2] (H-IRVKIRVKIRVK-NH2; N-terminus assumed)
[1]
  GM, geometric mean of MIC values for the 5 microorganisms tested: 47.3 µg/mL
[2]
  LD50: 35.2 mg/kg
E. coli and S. aureus
  surface morphology under FE-SEM: rough and uneven
S. aureus biofilms [3]
  killing of S. aureus residing in biofilms: dose-dependent killing
S. aureus biofilms [4]
  amount of biomass in the treated biofilms: reduced in a dose-dependent manner
[5]
  nitrite concentration, LPS-stimulated NO production: reduced to the control level
Rabbit red blood cells
  HC10, haemolysis concentration 10%: lowest peptide concentration that induces ≧10% haemolysis: >125^e) mg L^−1
P. aeruginosa [6]
  MBC P. aeruginosa: 15.6 µg/mL (≈ 10.4 µM)
C. neoformans
  MBC C. neoformans: 15.6 µg/mL (≈ 10.4 µM)
S. epidermidis [7]
  MIC S. epidermidis: 2.0 µg/mL (≈ 1.33 µM)
S. aureus [8]
  MIC S. aureus: 31.3 µg/mL (≈ 20.8 µM)
E. coli [9]
  MIC E. coli: 15.6 µg/mL (≈ 10.4 µM)
P. aeruginosa [10]
  MIC P. aeruginosa: 62.5 µg/mL (≈ 41.5 µM)
C. albicans [11]
  MIC C. albicans: 125 µg/mL (≈ 82.9 µM)
S. epidermidis [12]
  MIC S. epidermidis: 2.0 µg/mL (≈ 1.33 µM)
S. aureus [13]
  MIC S. aureus: 31.3 µg/mL (≈ 20.8 µM)
E. coli [14]
  MIC E. coli: 15.6 µg/mL (≈ 10.4 µM)
P. aeruginosa [15]
  MIC P aeruginosa: 62.5 µg/mL (≈ 41.5 µM)
C. albicans [16]
  MIC C. albicans: 125 µg/mL (≈ 82.9 µM)
[17]
  MBC Methicillin-resistant S. aureus: 15.6 µg/mL (≈ 10.4 µM)
A. baumanni; clinical isolate, multidrug resistant
  MBC A. baumanni: 15.6 µg/mL (≈ 10.4 µM)
[18]
  MBC Vancomycin-resistant Enterococci: 7.8 µg/mL (≈ 5.18 µM)
[19]; strain number 1140
  MIC M. tuberculosis: 15.6 µg/mL (≈ 10.4 µM)
[19]; strain number 1146
  MIC M. tuberculosis: >31.3 µg/mL
[20]
  GM, geometric mean of MIC values for the 5 microorganisms tested: 47.3 µg/mL

## CC[C@H](C)[C@H](N)C(=O)N[C@@H](CCCNC(=N)N)C(=O)N[C@H](C(=O)N[C@@H](CCCCN)C(=O)N[C@H](C(=O)N[C@@H](CCCNC(=N)N)C(=O)N[C@H](C(=O)N[C@@H](CCCCN)C(N)=O)[C@@H](C)CC)[C@@H](C)CC)[C@@H](C)CC [(IRIK)2-NH2] (H-IRIKIRIK-NH2; N-terminus assumed)
[1]
  GM, geometric mean of MIC values for the 5 microorganisms tested: 23.4 µg/mL
[2]
  LD50: 35.2 mg/kg
E. coli and S. aureus
  surface morphology under FE-SEM: rough and uneven
S. aureus biofilms [3]
  killing of S. aureus residing in biofilms: dose-dependent killing
S. aureus biofilms [3]; Staphylococcus aureus, 4 ×MIC
  cell viability of S. aureus in biofilms: less than 10%
S. aureus biofilms [4]
  amount of biomass in the treated biofilms: reduced in a dose-dependent manner
Rabbit red blood cells
  HC10, haemolysis concentration 10%: lowest peptide concentration that induces ≧10% haemolysis: 2000 mg/L
Trypsin and proteinase K
  antimicrobial activity after protease treatment: complete loss in bacterial inhibitory activities
  structural integrity after protease treatment, MALDI-TOF MS: degradation of the intact peptide
P. aeruginosa [6]
  MBC P. aeruginosa: 7.8 µg/mL (≈ 7.51 µM)
C. neoformans
  MBC C. neoformans: 7.8 µg/mL (≈ 7.51 µM)
F. solani
  MIC F. solani: 31.3 µg/mL (≈ 30.1 µM)
S. epidermidis [7]
  MIC S. epidermidis: 3.9 µg/mL (≈ 3.76 µM)
S. aureus [8]
  MIC S. aureus: 62.5 µg/mL (≈ 60.2 µM)
E. coli [9]
  MIC E. coli: 15.6 µg/mL (≈ 15 µM)
P. aeruginosa [10]
  MIC P. aeruginosa: 31.3 µg/mL (≈ 30.1 µM)
C. albicans [11]
  MIC C. albicans: 3.9 µg/mL (≈ 3.76 µM)
S. epidermidis [12]
  MIC S. epidermidis: 3.9 µg/mL (≈ 3.76 µM)
S. aureus [13]
  MIC S. aureus: 62.5 µg/mL (≈ 60.2 µM)
E. coli [14]
  MIC E. coli: 15.6 µg/mL (≈ 15 µM)
P. aeruginosa [15]
  MIC P aeruginosa: 31.3 µg/mL (≈ 30.1 µM)
C. albicans [16]
  MIC C. albicans: 3.9 µg/mL (≈ 3.76 µM)
[17]
  MBC Methicillin-resistant S. aureus: 31.3 µg/mL (≈ 30.1 µM)
A. baumanni
  MBC A. baumanni: 125 µg/mL (≈ 120 µM)
[18]
  MBC Vancomycin-resistant Enterococci: 15.6 µg/mL (≈ 15 µM)
[20]
  GM, geometric mean of MIC values for the 5 microorganisms tested: 23.4 µg/mL
C. albicans keratitis; C. albicans counts in mice cornea, agar plating
  fungal cells eradicated from the biofilms compared to the untreated control group: ~90%
C. albicans keratitis; [22]
  depth of hyphal invasion into the cornea, PAS histology: reduced the maximal depth of hyphal invasion
  resolution of the keratitis infection (eye appearance): significant resolution of the keratitis infection
C. albicans keratitis; topical eye drops, peptides 3000 mg/L, amphotericin B 1000 mg/L, P<0.01
  clinical scores of mice corneas (slit lamp): significantly lower than that in the control group

## CC1(C)S[C@@H]2[C@H](NC(=O)Cc3ccccc3)C(=O)N2[C@H]1C(=O)O [penicillin G, reference compound]
S. aureus [21]
  MICn/MIC0, fold increase in MIC: 32

Source: patent US9221875B2, “Amphiphilic peptides for treatment of keratitis” (Agency for Science, Technology and Research, priority 2013, dated 2015)
